Results taken from the OPERA property sets (Mansouri et al. 2018).

Structure (SMILES) | melting point [°C] | boiling point [°C] | other results
CCOc1ccc([Si](C)(C)CCCc2ccc(F)c(Oc3ccccc3)c2)cc1 |  |  | log10 vapour pressure (mmHg): -7.73
NS(=O)(=O)c1cccc([N+](=O)[O-])c1 | 167 |  | 
CCCCC(C)(O)CCC (stereo not given) |  | 180 | 
CCCCCCCCCCCCCCCCCCS | 30 | 360 | log10 vapour pressure (mmHg): -6.4; ready biodegradability: not readily biodegradable
NC(=O)C(Br)(Br)Br | 122 |  | 
CC(F)(F)C(Cl)(Cl)Cl |  | 73 | 
CC(C)(C)C(O)/C(=C\c1ccc(Cl)cc1Cl)n1cncn1 (stereo not given) | 147 |  | log10 vapour pressure (mmHg): -4.43
CC(C)OC(=O)C1(S(=O)(=O)c2ccc([N+](=O)[O-])cc2)CCCCC1 | 110 |  | 
CCCCCCCCCCCCCCCCCCI | 34 | 383 | log10 vapour pressure (mmHg): -5.72
CN1C(=O)CC(c2ccccc2)C1=O (stereo not given) | 72 |  | 
COc1cc(-c2ccc(N=C=O)c(OC)c2)ccc1N=C=O | 114 |  | 
Clc1ccccc1Oc1ccccc1 |  |  | log10 vapour pressure (mmHg): -2.4
CC(C)CN | -85 | 68.5 | log10 vapour pressure (mmHg): 2.14; ready biodegradability: readily biodegradable
CC(C)C(=O)C(=O)O | 31.5 | 170 | 
CC(C)CCBr | -112 | 120 | log10 Henry constant (atm·m³/mol): -1.46; log10 vapour pressure (mmHg): 1.54
CC(C)c1ccc(C(=O)O)cc1 | 118 |  | ready biodegradability: readily biodegradable
Cc1ccc([C@H](C)O)cc1 |  | 219 | 
CC(=O)C=C(C)C | -59 | 130 | log10 vapour pressure (mmHg): 0.914; ready biodegradability: readily biodegradable
C=CCOc1c(Br)cc(C(C)(C)c2cc(Br)c(OCC=C)c(Br)c2)cc1Br | 119 |  | 
CCCC(=O)OC | -85.8 | 103 | log10 Henry constant (atm·m³/mol): -3.69; log10 vapour pressure (mmHg): 1.51
ClC=C(Cl)C(Cl)=CCl | -4 | 188 | 
CSc1ccccc1N |  | 234 | 
O=C1c2cccc(O)c2C(=O)c2c(O)cc(CO)cc21 | 224 |  | 
CC[C@@H](CO)NCCN[C@@H](CC)CO | 89 |  | 

Structure (SMILES) | melting point [°C] | boiling point [°C] | other results
FC(Cl)C(F)(F)F (stereo not given) |  | -12 | log10 vapour pressure (mmHg): 3.46
O=C=Nc1ccc(Br)cc1 |  | 226 | 
CCOc1ccccc1C |  | 184 | 
Fc1nc(F)nc(F)n1 | -38 | 72.8 | 
C#CCOc1cc(-n2nc(C(C)(C)C)oc2=O)c(Cl)cc1Cl | 131 |  | log10 vapour pressure (mmHg): -7.73
Clc1c(Cl)c(Cl)c2c(c1Cl)Oc1c(Cl)c(Cl)c(Cl)c(Cl)c1O2 | 330 | 510 | log10 Koa: 12.1; log10 vapour pressure (mmHg): -12.1; log10 BCF (fish): 3.12; log10 biotransformation half-life (days) (fish): 1.16
C=CCC(=O)OCC |  | 119 | 
CN[C@@H](C)[C@@H](O)c1ccccc1 | 90.5 |  | 
NC1=NCCS1 | 85.3 |  | 
CCC(C)Oc1ccccc1 (stereo not given) |  | 194 | 
ClC=C(Cl)CCl |  | 142 | log10 vapour pressure (mmHg): 0.643
CCO[Si](CCC#N)(OCC)OCC |  | 224 | 
CCn1cc(C(=O)O)c(=O)c2ccc(-c3ccncc3)cc21 | 290 |  | 
CC(C)(C)OOC(C)(C)c1ccc(C(C)(C)OOC(C)(C)C)cc1 |  |  | ready biodegradability: not readily biodegradable
CC(C)CCC(C)O (stereo not given) |  | 151 | log10 vapour pressure (mmHg): 0.307
Clc1nc2ccccc2s1 | 24 | 248 | 
CCN(CC)CCn1cnc2c1c(=O)n(C)c(=O)n2C | 75 |  | 
O=C(O)c1ccc[nH]1 |  |  | log10 vapour pressure (mmHg): -5.65
Cc1c(C)c([N+](=O)[O-])c(C(C)(C)C)c([N+](=O)[O-])c1C | 136 |  | 
CC(CO)(CO)CO | 204 | 283 | ready biodegradability: not readily biodegradable
Fc1cc(F)c(F)cc1F | 4.5 | 90.2 | log10 vapour pressure (mmHg): 1.75
Ic1ccc2c(c1)Oc1ccccc1O2 | 95 |  | log10 vapour pressure (mmHg): -4.5
OC(CCl)CCl | -4 | 176 | log10 vapour pressure (mmHg): -0.125; ready biodegradability: readily biodegradable
C#CCC | -126 | 8 | log10 vapour pressure (mmHg): 3.15

Structure (SMILES) | melting point [°C] | boiling point [°C] | other results
CNCCc1c[nH]c2ccccc12 | 88 |  | 
CCC(O)c1ccccc1 (stereo not given) |  | 219 | 
Clc1ccc2ccc(Cl)c(Cl)c2c1 |  |  | log10 Koa: 7.5
NC(=O)Nc1ccccc1F |  |  | log10 Koc (L/kg): 1.32
CCC(CC)C(C)(C)CC |  | 163 | 
Nc1ccc(C(=O)O)cc1 | 188 |  | log10 Koc (L/kg): 2.5; ready biodegradability: readily biodegradable
O=Cc1ccc(F)cc1 | -10 | 182 | 
CC(=O)c1ccc(C)c(C)c1 | -3 | 246 | 
Cc1nc2ccc([N+](=O)[O-])cc2[nH]1 | 224 |  | 
CC(=O)Cc1ccccc1 | -15 | 216 | 
O=C[O-].[K+] | 167 |  | 
CCOC(=O)Nc1ccc2c(c1)N(C(=O)CCN1CCOCC1)c1ccccc1S2 | 156 |  | 
CC(C)C(=O)OCC(C)(C)C(O)C(C)C (stereo not given) |  |  | ready biodegradability: readily biodegradable
O=C(O)C=Cc1cccc(C(F)(F)F)c1 | 136 |  | 
CC1CC(=O)CC(C)(C)C1 (stereo not given) |  | 189 | ready biodegradability: not readily biodegradable
CCN1C[C@]2(COC)CCC(O)[C@]34C1C(O)([C@@H](OC)[C@H]23)C1(O)C[C@H](OC)[C@H]2C[C@@H]4[C@@H]1[C@H]2OC (stereo not given in full) | 214 |  | 
COC(=O)C1(S(=O)(=O)c2ccc(Cl)cc2)CCC1 | 76.2 |  | 
O=C(O)c1cccc(Br)c1 | 155 |  | log10 vapour pressure (mmHg): -4.04
COC(=O)C(C)C(=O)OC |  | 174 | 
Cc1ccc(NC2=NCCN2)c(Cl)c1 | 149 |  | 
CC(O)CBr (stereo not given) |  | 146 | 
C#CCNC |  | 83 | 
Cc1nnc(N)s1 | 224 |  | 
